The CheMixHub viscosity set

Experiment: xn = mol fraction of the nth substance listed

Cc1ccccc1C + C1CCCCC1
viscosity [mPa·s], 101 kPa
Settings | x1 = 0.0998 | x1 = 0.2001 | x1 = 0.3 | x1 = 0.4 | x1 = 0.5 | x1 = 0.6 | x1 = 0.7001 | x1 = 0.7999 | x1 = 0.9
303.15 K | 0.7647 | 0.7241 | 0.6977 | 0.6817 | 0.6728 | 0.6706 | 0.6735 | 0.681 | 0.6924
308.15 K | 0.7083 | 0.6736 | 0.6511 | 0.6372 | 0.6306 | 0.6289 | 0.6317 | 0.639 | 0.65
313.15 K | 0.6583 | 0.6281 | 0.6097 | 0.5979 | 0.592 | 0.5919 | 0.5946 | 0.6015 | 0.6118
318.15 K | 0.6129 | 0.5876 | 0.572 | 0.5615 | 0.5568 | 0.5562 | 0.5614 | 0.5679 | 0.5772
323.15 K | 0.5722 | 0.5508 | 0.5372 | 0.5284 | 0.5247 | 0.5248 | 0.5293 | 0.5365 | 0.5452

Cc1ccccc1C + C1COCCO1
308.15 K, 101 kPa
Settings | viscosity [mPa·s]
x2 = 0.1 | 0.676
x2 = 0.2 | 0.699
x2 = 0.3 | 0.723
x2 = 0.5 | 0.774
x2 = 0.6 | 0.806
x2 = 0.7 | 0.841
x2 = 0.8 | 0.879
x2 = 0.9 | 0.922

COCCOCCO + CC1COC(=O)O1
298.15 K, 101.33 kPa
Settings | viscosity [mPa·s]
x1 = 0.0342 | 2.506
x1 = 0.0633 | 2.515
x1 = 0.0849 | 2.524
x1 = 0.1101 | 2.537
x1 = 0.1406 | 2.548
x1 = 0.1617 | 2.559
x1 = 0.1739 | 2.568
x1 = 0.2188 | 2.601
x1 = 0.2694 | 2.645
x1 = 0.3234 | 2.698
x1 = 0.3696 | 2.751
x1 = 0.3809 | 2.771
x1 = 0.4421 | 2.844
x1 = 0.4715 | 2.886
x1 = 0.5373 | 2.97
x1 = 0.5688 | 3.011
x1 = 0.6187 | 3.063
x1 = 0.6576 | 3.108
x1 = 0.7503 | 3.217
x1 = 0.7761 | 3.248
x1 = 0.7996 | 3.269
x1 = 0.8142 | 3.282
x1 = 0.8452 | 3.313
x1 = 0.9062 | 3.367
x1 = 0.9414 | 3.404
x2 = 0.0198 | 3.432

Cc1ccccc1C + CC1COC(=O)O1
303.15 K, 101.3 kPa
Settings | viscosity [mPa·s]
x2 = 0.1383 | 0.8178
x2 = 0.2653 | 0.9124
x2 = 0.3824 | 1.011
x2 = 0.4906 | 1.12
x2 = 0.5909 | 1.244
x2 = 0.6842 | 1.384
x2 = 0.7712 | 1.547
x2 = 0.8525 | 1.733
x2 = 0.9286 | 1.937

CCC#N + CC#N
298 K, 101.33 kPa
Settings | viscosity [mPa·s]
x1 = 0.1298 | 0.35
x1 = 0.2716 | 0.36
x1 = 0.4271 | 0.374
x1 = 0.5986 | 0.384
x1 = 0.7885 | 0.402

CCCCCCCCCCO + CC#N
viscosity [mPa·s], 101 kPa
Settings | 298.15 K | 303.15 K | 308.15 K
x2 = 0.0939 | 8.794 | 7.622 | 6.471
x2 = 0.2005 | 6.554 | 5.66 | 4.934
x2 = 0.301 | 4.932 | 4.226 | 3.648
x2 = 0.3902 | 3.872 | 3.394 | 2.877
x2 = 0.4935 | 2.848 | 2.467 | 2.15
x2 = 0.6249 | 1.83 | 1.678 | 1.441
x2 = 0.7216 | 1.302 | 1.189 | 1.053
x2 = 0.7933 | 1.021 | 0.864 | 0.777
x2 = 0.8544 | 0.79 | 0.636 | 0.586
x2 = 0.9006 | 0.548 | 0.51 | 0.479
x2 = 0.9382 | 0.46 | 0.431 | 0.411
x2 = 0.9708 | 0.395 | 0.379 | 0.358
